Laboratory results reported in a compilation of properties of binary mixtures (doi:10.1016/j.jct.2009.06.023).

Assay: xn = mol fraction of the nth substance listed
Conditions: 101 kPa

CCCC[n+]1ccn(C)c1.O=[N+]([O-])[O-] + CCCCO
viscosity [mPa·s]
Conditions | x2 = 0.129 | x2 = 0.26 | x2 = 0.361 | x2 = 0.456 | x2 = 0.565 | x2 = 0.65 | x2 = 0.753 | x2 = 0.848
283.15 K | 232 | 125 | 75.5 | – | 29 | 19.86 | 11.42 | 7.82
288.15 K | 170.6 | – | 58.8 | 38.34 | – | 16.11 | 9.74 | 6.78
293.15 K | 126.9 | 68.4 | 46.54 | 31.1 | – | 13.67 | 8.41 | –
298.15 K | – | 53.94 | 37.64 | – | – | 11.74 | 7.28 | 5.12
303.15 K | 70.8 | – | 30.76 | 21.48 | – | 10.17 | 6.35 | 4.52
308.15 K | – | – | 25.6 | 18.23 | 12.37 | – | – | 3.98
313.15 K | 45.28 | 29.24 | – | 15.59 | – | – | – | 3.56
318.15 K | 37.11 | – | 18.41 | 13.52 | – | 6.94 | 4.38 | 3.19
323.15 K | 30.72 | 20.83 | – | 11.81 | 8.33 | 6.15 | – | 2.87
328.15 K | 25.86 | 17.89 | 13.75 | 10.37 | 7.37 | 5.52 | 3.5 | 2.6
333.15 K | 21.95 | 15.46 | – | 9.18 | – | 4.93 | 3.17 | 2.37

CCCC[n+]1ccn(C)c1.O=[N+]([O-])[O-] + CCCO
viscosity [mPa·s]
Conditions | x2 = 0.121 | x2 = 0.257 | x2 = 0.364 | x2 = 0.471 | x2 = 0.554 | x2 = 0.673 | x2 = 0.755 | x2 = 0.857
283.15 K | 243 | 125.8 | 72.5 | 42.71 | 27.88 | 15.61 | 10.26 | 6.16
288.15 K | – | 95.7 | 56.76 | – | 23 | 13.2 | 8.83 | 5.29
293.15 K | 130.9 | 68.2 | 45.1 | 28.35 | 19.19 | – | 7.6 | 4.64
298.15 K | 99.8 | 53.67 | 36.43 | 23.48 | 16.29 | – | 6.56 | 4.05
303.15 K | 74 | 43.04 | 29.92 | 19.71 | 13.94 | 8.54 | 5.77 | 3.59
308.15 K | 58.48 | 35.02 | 24.93 | – | 12.03 | 7.43 | 5.04 | 3.21
313.15 K | 47.07 | 28.93 | – | 14.44 | 10.5 | 6.49 | 4.49 | 2.87
318.15 K | 38.59 | 24.21 | 17.89 | – | – | 5.78 | 3.97 | 2.59
323.15 K | – | 20.58 | 15.41 | – | 8.16 | 5.09 | 3.58 | 2.35
328.15 K | 26.75 | 17.65 | 13.41 | – | 7.2 | 4.58 | – | –
333.15 K | 22.73 | 15.31 | 11.77 | 8.61 | – | 4.14 | 2.94 | 1.96

CCCC[n+]1ccn(C)c1.O=[N+]([O-])[O-] + CCO
viscosity [mPa·s]
Conditions | x2 = 0.11 | x2 = 0.254 | x2 = 0.352 | x2 = 0.447 | x2 = 0.556 | x2 = 0.663 | x2 = 0.748 | x2 = 0.852
283.15 K | 260 | 120.4 | 66 | – | 21.24 | 10.88 | 7.45 | 3.9
288.15 K | 190 | 90.7 | – | 28.43 | 17.96 | – | – | 3.47
293.15 K | 139.3 | – | 41.09 | 23.18 | 15.21 | 8.84 | – | 3.08
298.15 K | – | 53.62 | 32.83 | 19.16 | 13.06 | – | – | 2.75
303.15 K | 86.8 | 43.08 | 26.28 | – | 11.34 | 6.71 | 4.28 | –
308.15 K | – | 35.32 | – | 13.73 | 9.83 | – | 3.76 | 2.31
313.15 K | – | – | 17.78 | 11.88 | 9.05 | 5 | 3.38 | 2.13
318.15 K | 38.81 | – | 15.48 | 10.26 | 8.02 | 4.49 | 3.08 | –
323.15 K | 32.11 | 20.84 | 14.06 | 8.91 | 6.96 | 4.04 | 2.81 | 1.75
328.15 K | 26.9 | 17.9 | 12.51 | – | 6.08 | 3.7 | 2.57 | 1.65
333.15 K | 22.91 | – | 10.88 | 7.7 | 5.49 | 3.39 | 2.38 | 1.59
